Structures can show the parent of a compound that is named as a salt.

For the compound `CN1C2CCC1CC(N(C)S(=O)(=O)c1ccc(Nc3nccc(Nc4ccc(F)cc4)n3)cc1)C2` (centres unmarked), the melting point (as a rule, the temperature, or range, at which the solid turns liquid) stood at 184.5 °C. In turn, `CCOP(=O)(CCN1CCC(NS(=O)(=O)c2ccc(Nc3nccc(Nc4ccc(F)c(F)c4)n3)cc2)CC1)OCC` yielded a melting point of 133 °C. `CCOP(=O)(CN1CCC(NS(=O)(=O)c2ccc(Nc3nccc(Nc4ccc(F)c(F)c4)n3)cc2)CC1)OCC` returned a melting point of 137.8 °C.

For the compound `CCOP(=O)(CCN1CCC(N(C)S(=O)(=O)c2ccc(Nc3nccc(Nc4ccc(F)c(F)c4)n3)cc2)CC1)OCC`, the melting point is 93 to 96 °C. For `CCOP(=O)(CCN1CCC(N(CCN)S(=O)(=O)c2ccc(Nc3nccc(Nc4ccc(F)c(F)c4)n3)cc2)CC1)OCC` the value was 88 to 90 °C; for `CCOP(=O)(CCN1CCC(N(CCCN)S(=O)(=O)c2ccc(Nc3nccc(Nc4ccc(F)c(F)c4)n3)cc2)CC1)OCC`, 94 to 96 °C; for `CCOP(=O)(CCN1CCC(N(C)S(=O)(=O)c2ccc(Nc3nccc(Nc4ccc(F)cc4)n3)cc2)CC1)OCC`, 95 to 100 °C. `CCOP(=O)(CCN1CCC(N(CCN)S(=O)(=O)c2ccc(Nc3nccc(Nc4ccc(F)cc4)n3)cc2)CC1)OCC`: the melting point is 90 °C. In turn, `CCOP(=O)(CCCN1CCC(NS(=O)(=O)c2ccc(Nc3nccc(Nc4ccc(F)cc4)n3)cc2)CC1)OCC` displayed a melting point of 110 °C. Consider `CCOP(=O)(CCN1CCC(N(CCCN)S(=O)(=O)c2ccc(Nc3nccc(Nc4ccc(F)cc4)n3)cc2)CC1)OCC`, for which the melting point was 125 to 130 °C. For `CCOP(=O)(CCN1CCC(N(CCN2CCCC2)S(=O)(=O)c2ccc(Nc3nccc(Nc4ccc(F)cc4)n3)cc2)CC1)OCC` the value was 85 °C. For `CC(C)(O)CNCCN(C1CCN(Cc2ccccc2)CC1)S(=O)(=O)c1ccc(Nc2nccc(Nc3ccc(F)cc3)n2)cc1` (as salt: hydrochloride) the value was 200 °C; for `CN(C1CCNCC1)S(=O)(=O)c1ccc(Nc2nccc(Nc3ccc(F)c(F)c3)n2)cc1` (as salt: hydrochloride), 275 °C; for `Cc1cc(Nc2ccnc(Nc3ccc(S(=O)(=O)N(C)C4CCNCC4)cc3)n2)ccc1F` (as salt: hydrochloride), 215 to 220 °C.

`CN1CCC(N(CCN)S(=O)(=O)c2ccc(Nc3nccc(Nc4ccc(F)cc4)n3)cc2)CC1` (as salt: hydrochloride) registered a melting point of 225 °C. On to `CN(C)CCN(C1CCNCC1)S(=O)(=O)c1ccc(Nc2nccc(Nc3ccc(F)cc3)n2)cc1` (as salt: hydrochloride), for which the melting point came out at 220 °C. The figure for `O=S(=O)(c1ccc(Nc2nccc(Nc3ccc(F)cc3)n2)cc1)N(CCN1CCCC1)C1CCNCC1` (as salt: hydrochloride) is 200 °C; for `CCOP(=O)(CCN1CCC(N(CC2CCCN2)S(=O)(=O)c2ccc(Nc3nccc(Nc4ccc(F)cc4)n3)cc2)CC1)OCC` (centres unmarked) (as salt: hydrochloride) it is 185 °C; for `NCCN(C1CCN(Cc2ccccc2)CC1)S(=O)(=O)c1ccc(Nc2nccc(Nc3ccc(F)cc3)n2)cc1` (as salt: hydrochloride) it is 230 to 232 °C. The figure for `NCCN(C1CNC1)S(=O)(=O)c1ccc(Nc2nccc(Nc3ccc(F)cc3)n2)cc1` (as salt: hydrochloride) is greater than 220 °C. With `CCNCCN(C1CCNCC1)S(=O)(=O)c1ccc(Nc2nccc(Nc3ccc(F)cc3)n2)cc1` (as salt: hydrochloride), the melting point stood at 250 °C.

Regarding `NCCN(C1CCOCC1)S(=O)(=O)c1ccc(Nc2nccc(Nc3ccc(F)cc3)n2)cc1` (as salt: hydrochloride), the melting point was determined as 200 °C. The figure for `Cc1cc(Nc2ccnc(Nc3ccc(S(=O)(=O)N(CCN)C4CNC4)cc3)n2)ccc1F` (as salt: hydrochloride) is 205 °C; for `Cc1cc(Nc2ccnc(Nc3ccc(S(=O)(=O)N(CCN)C4CCN(CC(F)(F)F)CC4)cc3)n2)ccc1F` (as salt: hydrochloride) it is 225 °C; for `CN(C1CCNCC1)S(=O)(=O)c1ccc(Nc2nccc(Nc3ccc(F)cc3)n2)cc1` (as salt: hydrochloride) [Example 8, 4-[4-(4-Fluorophenylamino)pyrimidin-2-ylamino]-N-methyl-N-piperidin-4-yl-benzenesulfonamide] it is 205 to 210 °C. For `NCCN(C1CCNCC1)S(=O)(=O)c1ccc(Nc2nccc(Nc3ccc(F)cc3)n2)cc1` (as salt: hydrochloride) [Example 44, N-(2-Aminoethyl)-4-[4-(4-fluorophenyl-amino)pyrimidin-2-ylamino]-N-piperidin-4-ylbenzene-sulfonamide hydrochloride] the value was 270 °C.

With `CNCCN(C1CCN(C)CC1)S(=O)(=O)c1ccc(Nc2nccc(Nc3ccc(F)cc3)n2)cc1` (as salt: hydrochloride) [Example 46, 4-[4-(4-Fluorophenylamino)pyrimidin-2-yl-amino]-N-(2-methylaminoethyl)-N-(1-methylpiperidin-4-yl)benzenesulfonamide hydrochloride], the melting point was determined as 220 °C.

Turning to `NCCCN(C1CCNCC1)S(=O)(=O)c1ccc(Nc2nccc(Nc3ccc(F)cc3)n2)cc1` (as salt: hydrochloride) [Example 92, N-(3-Aminopropyl)-4-({4-[(4-fluorophenyl)-amino]pyrimidin-2-yl}amino)-N-piperidin-4-ylbenzene-sulfonamide hydrochloride], the melting point was 245 to 247 °C. The figure for `Cc1cc(Nc2ccnc(Nc3ccc(S(=O)(=O)N(CCN)C4CCN(C)CC4)cc3)n2)ccc1F` (as salt: hydrochloride) [Example 95, N-(2-Aminoethyl)-4-({4-[(4-fluoro-3-methyl-phenyl)amino]pyrimidin-2-yl}amino)-N-(1-methylpiperidin-4-yl)benzenesulfonamide hydrochloride] is 220 °C. For `O=S(=O)(c1ccc(Nc2nccc(Nc3ccc(F)cc3)n2)cc1)N(CCN1CCCC1)C1CNC1` (as salt: hydrochloride) [Example 96, N-Azetidin-3-yl-4-({4-[(4-fluorophenyl)-amino]pyrimidin-2-yl}amino)-N-(2-pyrrolidin-1-ylethyl)-benzenesulfonamide hydrochloride] the value was 215 °C. The figure for `Cc1cc(Nc2ccnc(Nc3ccc(S(=O)(=O)N(CCN4CCCC4)C4CNC4)cc3)n2)ccc1F` (as salt: hydrochloride) [Example 97, N-Azetidin-3-yl-4-({4-[(4-fluoro-3-methyl-phenyl)amino]pyrimidin-2-yl}amino)-N-(2-pyrrolidin-1-ylethyl)benzenesulfonamide hydrochloride] is 231 to 235 °C. In turn, `NCCN(C1CCN(CC(F)(F)F)CC1)S(=O)(=O)c1ccc(Nc2nccc(Nc3ccc(F)cc3)n2)cc1` (as salt: hydrochloride) [Example 100, N-(2-Aminoethyl)-4-({4-[(4-fluorophenyl)-amino]pyrimidin-2-yl}amino)-N-[1-(2,2,2-trifluoro-ethyl)piperidin-4-yl]benzenesulfonamide hydrochloride] returned a melting point of 240 to 245 °C. The figure for `CN1CCC(N(C[C@@H]2CCCN2)S(=O)(=O)c2ccc(Nc3nccc(Nc4ccc(F)cc4)n3)cc2)CC1` (as salt: hydrochloride) [Example 123, 4-({4-[(4-Fluorophenyl)amino]pyrimidin-2-yl}amino)-N-(1-methylpiperidin-4-yl)-N-[(2S)-pyrrolidin-2-ylmethyl]benzenesulfonamide] is 200 °C.

For `CN1CCC(N(C[C@H]2CCCN2)S(=O)(=O)c2ccc(Nc3nccc(Nc4ccc(F)cc4)n3)cc2)CC1` (as salt: hydrochloride) [Example 124, 4-({4-[(4-Fluorophenyl)amino]pyrimidin-2-yl}amino)-N-(1-methylpiperidin-4-yl)-N-[(2R)-pyrrolidin-2-ylmethyl]benzenesulfonamide], the melting point stood at 200 °C.

In turn, `CN1CCC(N(CC2CCCO2)S(=O)(=O)c2ccc(Nc3nccc(Nc4ccc(F)cc4)n3)cc2)CC1` (racemic) [Example 154] came in with a melting point of 189 °C.

Turning to `CN1CCC(N(C)S(=O)(=O)c2ccc(Nc3nccc(Nc4ccc(F)cc4)n3)cc2)CC1` [Example 1, 4-[4-(4-Fluorophenylamino)pyrimidin-2-ylamino]-N-methyl-N-(1-methylpiperidin-4-yl)benzenesulfonamide], the melting point was 205 to 210 °C. For `O=C(CNS(=O)(=O)c1ccc(Nc2nccc(Nc3ccc(F)cc3)n2)cc1)NC1CCOCC1` [Example 2, 2-{4-[4-(4-Fluorophenylamino)pyrimidin-2-ylamino]benzenesulfonylamino}-N-(tetrahydropyran-4-yl)-acetamide] the value was 253 to 254 °C; for `CN(C1CCN(Cc2ccccc2)CC1)S(=O)(=O)c1ccc(Nc2nccc(Nc3ccc(F)cc3)n2)cc1` [Example 3, N-(1-Benzylpiperidin-4-yl)-4-[4-(4-fluoro-phenylamino)pyrimidin-2-ylamino]-N-methylbenzene-sulfonamide], 186 to 190 °C. For `CN1CCC(N(C)S(=O)(=O)c2ccc(Nc3nccc(Nc4ccc(F)cc4)n3)cc2)C1` (centres unmarked) [Example 5, 4-[4-(4-Fluorophenylamino)pyrimidin-2-yl-amino]-N-methyl-N-(1-methylpyrrolidin-3-yl)benzene-sulfonamide] the value was 177 to 181 °C; for `CN(C1CCS(=O)(=O)C1)S(=O)(=O)c1ccc(Nc2nccc(Nc3ccc(F)cc3)n2)cc1` (centres unmarked) [Example 6, N-(1,1-Dioxotetrahydro-1λ^6-thiophen-3-yl)-4-[4-(4-fluorophenylamino)pyrimidin-2-ylamino]-N-methyl-benzenesulfonamide], 236 to 240 °C; for `CN(C1CCN(Cc2ccccn2)CC1)S(=O)(=O)c1ccc(Nc2nccc(Nc3ccc(F)cc3)n2)cc1` [Example 9, 4-[4-(4-Fluorophenylamino)pyrimidin-2-ylamino]-N-methyl-N-(1-pyridin-2-ylmethylpiperidin-4-yl)benzenesulfonamide], 202 to 204 °C.

The values are drawn from patent US20080269170A1, “Novel 2,4-Dianilinopyrimidine Derivatives, the Preparation Thereof, Their Use as Medicaments, Pharmaceutical Compositions and, in Particular, as IKK Inhibitors” (sanofi-aventis, priority 2005, published 2008).
